# Reference: patent US8026218B2, “Bifunctional analgesic compounds for opioid receptor agonists and neurokinin-1 receptor antagonists” (The University of Arizona, priority 2006, dated 2011)
# Read-outs that look alike come from different tables or passages of the source.
# Columns and labels:
# [1] = molecular target: T1, rat μ opioid receptors (rMOR) (Rattus norvegicus, UniProt P33535); experiment: biochemical; assay type: biochemical
# T1 construct: expressed in transfected cells; host or cells: HN9.10 neuroblastoma cell line, pCDNA3, neomycin-selected clones
# T1 sequence (P33535 whole entry): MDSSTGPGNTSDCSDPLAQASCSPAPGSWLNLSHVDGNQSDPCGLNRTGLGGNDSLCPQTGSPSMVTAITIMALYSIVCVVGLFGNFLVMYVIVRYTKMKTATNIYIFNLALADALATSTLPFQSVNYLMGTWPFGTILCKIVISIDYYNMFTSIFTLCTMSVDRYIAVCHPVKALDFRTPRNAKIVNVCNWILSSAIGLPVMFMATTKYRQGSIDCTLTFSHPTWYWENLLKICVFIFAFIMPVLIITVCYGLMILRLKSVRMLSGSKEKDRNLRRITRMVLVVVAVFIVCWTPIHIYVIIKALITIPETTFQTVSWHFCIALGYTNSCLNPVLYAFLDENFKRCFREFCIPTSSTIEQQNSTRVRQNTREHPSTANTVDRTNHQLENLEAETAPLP
# [2] = molecular target: T2, human NK1 receptor (hNK1) (Homo sapiens, UniProt P25103); experiment: Radioligand competition binding, [3H]-Substance P, hNK1
# T2 construct: expressed in transfected cells
# T2 sequence (P25103 whole entry): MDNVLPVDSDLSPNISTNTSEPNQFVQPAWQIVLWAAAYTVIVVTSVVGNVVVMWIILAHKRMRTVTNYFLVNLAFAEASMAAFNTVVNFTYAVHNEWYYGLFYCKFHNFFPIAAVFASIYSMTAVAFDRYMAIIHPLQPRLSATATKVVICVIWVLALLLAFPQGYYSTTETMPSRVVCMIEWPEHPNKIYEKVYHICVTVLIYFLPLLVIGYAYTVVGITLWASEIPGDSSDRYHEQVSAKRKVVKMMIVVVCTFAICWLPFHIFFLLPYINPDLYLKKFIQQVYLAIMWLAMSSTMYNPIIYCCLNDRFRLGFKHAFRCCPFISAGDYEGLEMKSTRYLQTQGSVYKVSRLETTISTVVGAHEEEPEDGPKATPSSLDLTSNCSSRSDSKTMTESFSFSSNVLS
# rat NK1 (rNK1) receptor = molecular target: T3, rat NK1 (rNK1) receptor (Rattus norvegicus, UniProt P14600); experiment: Radioligand competition binding, [3H]substance P, rNK1/CHO membranes; conditions: for IC50: membranes from transfected CHO cells
# T3 construct: expressed in transfected cells; host or cells: CHO (rNK-1/CHO cell line from Dr. James Krause)
# T3 sequence (P14600 whole entry): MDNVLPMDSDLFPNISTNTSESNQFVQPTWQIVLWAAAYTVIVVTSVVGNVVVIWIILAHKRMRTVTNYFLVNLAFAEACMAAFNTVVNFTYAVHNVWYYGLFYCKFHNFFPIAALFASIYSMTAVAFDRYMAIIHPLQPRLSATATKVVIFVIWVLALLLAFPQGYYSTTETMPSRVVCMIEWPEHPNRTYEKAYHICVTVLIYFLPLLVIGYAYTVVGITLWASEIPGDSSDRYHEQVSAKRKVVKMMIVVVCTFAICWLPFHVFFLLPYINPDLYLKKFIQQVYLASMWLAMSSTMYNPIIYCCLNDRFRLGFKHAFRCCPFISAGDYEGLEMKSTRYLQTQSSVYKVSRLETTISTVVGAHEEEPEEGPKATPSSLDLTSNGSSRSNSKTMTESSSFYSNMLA
# [3] = molecular target: T4, human δ opioid receptors (hDOR) (Homo sapiens, UniProt P41143); experiment: [35S]GTP-γ-S binding assay, hDOR; assay type: biochemical
# T4 construct: expressed in transfected cells; host or cells: HN9.10 neuroblastoma cell line, pCDNA3, neomycin-selected clones
# T4 sequence (P41143 whole entry): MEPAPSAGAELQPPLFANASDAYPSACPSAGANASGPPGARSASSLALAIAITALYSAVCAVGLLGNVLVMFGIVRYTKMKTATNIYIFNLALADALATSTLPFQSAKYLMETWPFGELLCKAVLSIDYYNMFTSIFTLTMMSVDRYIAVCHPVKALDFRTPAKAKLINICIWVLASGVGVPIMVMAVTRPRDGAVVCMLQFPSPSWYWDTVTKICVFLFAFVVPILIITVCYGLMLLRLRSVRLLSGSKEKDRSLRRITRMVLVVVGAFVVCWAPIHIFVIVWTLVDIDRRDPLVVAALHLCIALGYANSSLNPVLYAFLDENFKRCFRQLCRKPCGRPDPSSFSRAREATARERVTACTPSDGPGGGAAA
# [4] = molecular target: T4, human δ opioid receptors (hDOR); experiment: Radioligand competition binding, [3H]DPDPE, hDOR membranes
# μ opioid receptors (GPI) = experiment: Guinea pig isolated ileum (GPI) assay, opioid agonist; parameters: GPI/LMMP Opioid(m) Agonist, % inh.: unit of the concentration uncertain;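 note: inhibition of electrically evoked contractions (0.1 Hz, 0.4 msec, supramaximal voltage) in organ baths at 37 °C, contraction height 3 min after each cumulative dose versus the 1 min before dosing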
# [5] = molecular target: T1, rat μ opioid receptors (rMOR); experiment: Radioligand competition binding, [3H]DAMGO, rMOR membranes
# δ opioid receptors (MVD) = molecular target: T5, δ opioid receptors (MVD) (Mus musculus, UniProt P32300); experiment: Mouse isolated vas deferens (MVD) assay, opioid agonist
# T5 construct: from tissue; host or cells: mouse (ICR) isolated vas deferens
# T5 sequence (P32300 whole entry): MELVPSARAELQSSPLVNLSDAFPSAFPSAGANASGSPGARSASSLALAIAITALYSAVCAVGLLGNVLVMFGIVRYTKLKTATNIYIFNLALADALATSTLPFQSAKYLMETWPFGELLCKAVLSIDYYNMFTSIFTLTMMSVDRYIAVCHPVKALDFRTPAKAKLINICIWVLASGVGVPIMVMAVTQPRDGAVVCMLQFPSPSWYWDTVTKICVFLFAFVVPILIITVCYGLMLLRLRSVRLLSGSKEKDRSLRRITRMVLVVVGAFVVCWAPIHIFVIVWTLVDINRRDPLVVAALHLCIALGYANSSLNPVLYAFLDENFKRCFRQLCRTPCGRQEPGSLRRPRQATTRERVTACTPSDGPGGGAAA
# [6] = molecular target: T6, Substance P receptors (guinea pig NK1) (Cavia porcellus, UniProt P30547); experiment: Guinea pig isolated ileum (GPI) assay with substance P stimulation in presence of 1 μM naloxone; conditions: for GPI/LMMP SP Agonist (IC50; nM): Table 39
# T6 construct: from tissue; host or cells: guinea pig (Hartley) ileum LMMP, 1 μM naloxone present
# T6 sequence (P30547 whole entry): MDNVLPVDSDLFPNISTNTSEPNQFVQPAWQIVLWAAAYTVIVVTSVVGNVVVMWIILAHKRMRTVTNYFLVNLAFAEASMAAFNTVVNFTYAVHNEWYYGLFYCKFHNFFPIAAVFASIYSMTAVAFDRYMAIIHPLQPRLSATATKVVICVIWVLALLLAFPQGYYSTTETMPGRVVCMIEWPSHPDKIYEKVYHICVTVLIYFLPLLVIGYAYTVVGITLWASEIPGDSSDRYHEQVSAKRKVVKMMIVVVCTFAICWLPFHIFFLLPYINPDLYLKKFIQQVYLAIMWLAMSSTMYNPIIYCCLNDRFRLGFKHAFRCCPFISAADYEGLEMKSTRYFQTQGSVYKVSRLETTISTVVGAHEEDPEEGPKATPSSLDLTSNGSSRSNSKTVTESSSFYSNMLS
# [7] = Table 39, read-out: GTP binding rMOR Emax
# [8] = read-out: GTP binding hDOR Emax
# [9] = membranes from transfected HN9.10 cells
# [10] = Table 30, read-out: GPI/LMMP Opioid(m) Agonist (IC50; nM)
# [11] = Table 39, read-out: GPI/LMMP opioid(mu) agonist (IC50; nM)
smiles,measurement,setting,value
"CC(C)C[C@H](NC(=O)[C@@H]1CCCN1C(=O)[C@@H](Cc1ccccc1)NC(=O)[C@H](Cc1ccccc1)NC(=O)CNC(=O)[C@@H](C)NC(=O)[C@@H](N)Cc1ccc(O)cc1)C(=O)N[C@@H](Cc1c[nH]c2ccccc12)C(=O)OCc1cc(C(F)(F)F)cc(C(F)(F)F)c1 [TY007, H-Tyr-D-Ala-Gly-Phe-D-Phe-Pro-Leu-Trp-O-3,5-Bzl(CF3)2]","LogEC50, rMOR, [35S]GTP-γ-S binding",[1],−6.46 ± 0.38
same,EC50,"[1]; Table 27, read-out: GTP binding rMOR EC50",345 nM
same,Emax,"[1]; Table 27, read-out: GTP binding rMOR Emax (%)",23.6%
same,EC50,"[1]; Table 39, read-out: GTP binding rMOR EC50",345 nM
same,Emax,[1]; [7],23.6%
same,Emax,"[1]; net total bound/basal binding × 100, read-out: Emax, rMOR, [35S]GTP-γ-S binding",22%
same,EC50,"[1]; read-out: EC50, rMOR, [35S]GTP-γ-S binding",345 nM
same,Ki,[2],1.3 nM
same,IC50,"rat NK1 (rNK1) receptor; IC50, rNK1, Substance P radioligand",66.7 nM
same,IC50,"rat NK1 (rNK1) receptor; LogIC50, rNK1, Substance P radioligand",60.3 nM
same,Ki(μ)/Ki(δ),[3],20.5
same,"LogEC50, hDOR, [35S]GTP-γ-S binding",[3],−7.78 ± 0.36
same,Emax,"[3]; read-out: Emax, hDOR, [35S]GTP-γ-S binding",26%
same,EC50,[3]; read-out: GTP binding hDOR EC50,16.7 nM
same,Emax,[3]; [8],22.9%
same,Emax,[3]; read-out: GTP binding hDOR Emax (%),22.9%
same,Ki,[4],110 nM
same,Ki(μ)/Ki(δ),"[4]; binding, rMOR vs hDOR",4.1
same,"LogIC50, hDOR, [3H]DPDPE",[4]; [9],−6.70 ± 0.13
same,Ki,"[4]; read-out: Ki, hDOR, [3H]DPDPE",93 nM
same,"GPI/LMMP Opioid(m) Agonist, % inh.","μ opioid receptors (GPI); Table 28, at 1 (unit uncertain)",9% inh. at 1 mM
same,"GPI/LMMP opioid(mu) agonist, %","μ opioid receptors (GPI); Table 39, concentration not given",9.20%
same,"GPI (μ), effect at single concentration",μ opioid receptors (GPI); at 1 μM,9% at 1 μM^b
same,Ki,[5],410 nM
same,"LogIC50, rMOR, [3H]DAMGO",[5]; [9],−6.09 ± 0.15
same,Ki,"[5]; read-out: Ki, rMOR, [3H]DAMGO",381 nM
same,IC50,"δ opioid receptors (MVD); Table 28, read-out: MVD Opioid (d) Agonist (IC50; nM)",412 nM
same,IC50,"δ opioid receptors (MVD); Table 39, read-out: MVD opioid(delta) agonist (IC50; nM)",412 nM
same,IC50,"δ opioid receptors (MVD); electrically stimulated isolated tissue, read-out: MVD (δ), IC50",412 ± 106 nM
same,Kb,"[6]; Substance P antagonist, GPI, Ke, in the presence of 1 μM naloxone",69.6 ± 7.1 nM
same,GPI/LMMP SP Agonist (IC50; nM),[6]; concentration not given,none
same,activation at 1 µM,"[6]; read-out: Substance P GPI agonist (A50), at 1 μM, contraction relative to initial muscle contraction with KCl",0%
CSCC[C@H](NC(=O)[C@H](Cc1ccccc1)NC(=O)CNC(=O)[C@@H](C)NC(=O)[C@@H](N)Cc1c(C)cc(O)cc1C)C(=O)N1CCC[C@H]1C(=O)N[C@@H](CC(C)C)C(=O)N[C@@H](Cc1c[nH]c2ccccc12)C(=O)NCc1cc(C(F)(F)F)cc(C(F)(F)F)c1 [TY032],Emax,[1]; [7],74%
same,Ki,[2],0.008 nM
same,EC50,[3]; GTP binding hDOR EC50,1.2 nM
same,Emax,[3]; [8],24%
same,Ki,[4],0.12 nM
same,IC50,μ opioid receptors (GPI); [10],18.6 nM
same,IC50,μ opioid receptors (GPI); [11],18.6 nM
same,IC50,δ opioid receptors (MVD),1.82 nM
same,GPI/LMMP Substance P Agonist (IC50; nM),[6]; Table 30,None
same,GPI/LMMP SP Agonist (IC50; nM),[6]; at 100 nM,none
CSCC[C@H](NC(=O)[C@H](Cc1ccccc1)NC(=O)CNC(=O)[C@@H](C)NC(=O)[C@@H](N)Cc1c(C)cc(O)cc1C)C(=O)N1CCC[C@H]1C(=O)N[C@@H](CC(C)C)C(=O)N[C@@H](Cc1c[nH]c2ccccc12)C(=O)NCc1ccccc1 [TY034],Emax,[1]; [7],58%
same,Ki,"rat NK1 (rNK1) receptor; Affinity rNK1 (Ki; nM), Table 39",317 nM
same,Emax,"[3]; Table 39, read-out: GTP binding hDOR Emax",21%
same,Ki,[4],0.1 nM
same,IC50,μ opioid receptors (GPI); [10],11.4 nM
same,IC50,μ opioid receptors (GPI); [11],11.4 nM
same,Ki,[5],0.14 nM
same,IC50,δ opioid receptors (MVD),6.85 nM
same,Kb,"[6]; GPI/LMMP Substance P Antagonist (Ke; nM), Table 30",36.9 nM
same,GPI/LMMP Substance P Agonist (IC50; nM),[6]; Table 30,None
same,GPI/LMMP SP Agonist (IC50; nM),[6]; at 100 nM,none
CCCC[C@H](NC(=O)[C@H](Cc1ccccc1)NC(=O)CNC(=O)[C@@H](C)NC(=O)[C@@H](N)Cc1c(C)cc(O)cc1C)C(=O)N1CCC[C@H]1C(=O)N[C@@H](CC(C)C)C(=O)N[C@@H](Cc1c[nH]c2ccccc12)C(=O)N(C)Cc1cc(C(F)(F)F)cc(C(F)(F)F)c1 [TY052],Ki,"[2]; Table 31, read-out: Affinity hNK1 (Ki; nM)",0.21 nM
same,Ki,"[2]; Table 39, read-out: Affinity hNK1 (Ki; nM)",0.21 nM
same,Ki,"[4]; Table 31, read-out: Affinity hDOR (Ki; nM)",0.46 nM
same,Ki,"[4]; Table 39, read-out: Affinity hDOR (Ki; nM)",0.46 nM
